Experimental data from ChEMBL document CHEMBL1134805, “Cyclic imides as potent and selective alpha-1A adrenergic receptor antagonists” (Bioorg Med Chem Lett, 2001).

What was measured:
[1] = Half-life in dogs; format: ADME, organism-based, Canis lupus familiaris; details: dog, in vivo
[2] = Half-life in rats; format: ADME, organism-based; details: rat, in vivo
[3] = Bioavailability in dog (Beagle) (male) (dose 3 mg/kg i.v. and 10 mg/kg p.o.) measured from 1 to 24 hr; format: ADME, organism-based, Canis lupus familiaris; details: in vivo, po
[4] = Bioavailability in rat (Sprague-Dawley) (male) (dose 1 mg/kg i.v. and 3 mg/kg p.o.) measured from 0.3 to 6 hr; format: ADME, organism-based; details: in vivo, po
[5] = molecular target: T1, Alpha-1D adrenergic receptor (Homo sapiens, UniProt P25100); assay: In vitro binding affinity towards cloned human Alpha-1D adrenergic receptor
T1 sequence (P25100 whole entry): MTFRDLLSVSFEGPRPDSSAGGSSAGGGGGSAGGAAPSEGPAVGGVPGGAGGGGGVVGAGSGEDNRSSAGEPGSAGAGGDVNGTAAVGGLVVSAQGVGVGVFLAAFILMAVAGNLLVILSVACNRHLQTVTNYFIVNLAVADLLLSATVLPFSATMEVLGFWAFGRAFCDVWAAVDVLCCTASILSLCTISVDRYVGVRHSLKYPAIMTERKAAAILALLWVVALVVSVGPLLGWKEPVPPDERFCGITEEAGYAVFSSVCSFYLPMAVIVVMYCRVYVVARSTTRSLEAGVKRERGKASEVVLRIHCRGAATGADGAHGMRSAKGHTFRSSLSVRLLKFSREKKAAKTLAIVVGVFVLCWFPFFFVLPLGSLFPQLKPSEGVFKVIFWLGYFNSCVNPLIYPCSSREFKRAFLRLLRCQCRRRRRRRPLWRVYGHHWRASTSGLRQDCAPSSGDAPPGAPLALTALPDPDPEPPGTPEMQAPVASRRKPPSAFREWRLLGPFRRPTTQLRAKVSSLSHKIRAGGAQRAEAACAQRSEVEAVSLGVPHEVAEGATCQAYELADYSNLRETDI

[6] = molecular target: T2, Alpha-1A adrenergic receptor (Homo sapiens, UniProt P35348); assay: In vitro binding affinity towards cloned human Alpha-1A adrenergic receptor
T2 sequence (P35348 whole entry): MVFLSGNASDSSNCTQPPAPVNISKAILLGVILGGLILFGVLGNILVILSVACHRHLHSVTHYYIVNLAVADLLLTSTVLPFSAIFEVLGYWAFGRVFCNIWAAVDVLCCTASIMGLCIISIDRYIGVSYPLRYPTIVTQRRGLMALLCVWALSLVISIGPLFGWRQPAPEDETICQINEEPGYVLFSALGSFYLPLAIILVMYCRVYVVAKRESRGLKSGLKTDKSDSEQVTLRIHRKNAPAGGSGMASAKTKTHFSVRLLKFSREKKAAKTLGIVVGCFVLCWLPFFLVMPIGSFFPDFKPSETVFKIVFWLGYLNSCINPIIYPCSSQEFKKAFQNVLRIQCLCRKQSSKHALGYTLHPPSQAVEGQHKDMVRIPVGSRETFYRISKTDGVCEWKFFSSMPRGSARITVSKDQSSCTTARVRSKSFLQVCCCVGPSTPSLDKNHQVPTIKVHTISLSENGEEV

[7] = molecular target: T3, Alpha-1B adrenergic receptor (Homo sapiens, UniProt P35368); assay: In vitro binding affinity towards cloned human Alpha-1B adrenergic receptor
T3 sequence (P35368 whole entry): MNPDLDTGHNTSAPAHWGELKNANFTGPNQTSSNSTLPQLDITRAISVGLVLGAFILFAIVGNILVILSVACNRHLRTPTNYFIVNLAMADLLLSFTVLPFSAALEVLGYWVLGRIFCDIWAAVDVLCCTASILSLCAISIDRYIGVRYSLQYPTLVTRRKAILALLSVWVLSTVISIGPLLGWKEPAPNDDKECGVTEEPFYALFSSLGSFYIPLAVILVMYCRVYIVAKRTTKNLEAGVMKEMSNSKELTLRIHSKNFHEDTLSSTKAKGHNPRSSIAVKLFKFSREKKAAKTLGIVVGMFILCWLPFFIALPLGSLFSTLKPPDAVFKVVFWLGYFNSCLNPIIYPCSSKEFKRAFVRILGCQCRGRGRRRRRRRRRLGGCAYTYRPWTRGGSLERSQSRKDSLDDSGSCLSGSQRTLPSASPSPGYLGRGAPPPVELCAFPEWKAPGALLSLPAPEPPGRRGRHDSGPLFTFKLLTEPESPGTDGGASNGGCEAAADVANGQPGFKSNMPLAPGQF

Structure (SMILES)	half-life [1] [h]	half-life [2] [h]	bioavailability [3] [%]	bioavailability [4] [%]	Ki [5] [nM]	Ki [6] [nM]	Ki [7] [nM]
Cc1ccc(C2(c3ccc(C)cc3)CC(=O)N(CCCN3CCC(C#N)(c4ccccc4C)CC3)C2=O)cc1	1.3	2.5	8	18	1500	1.7	1900
Cc1ccc(C2(c3ccc(C)cc3)OC(=O)N(CCCN3CCC(C#N)(c4ccccc4C)CC3)C2=O)cc1					> 5000	77	> 2000
COC(=O)C1(c2ccccc2)CCN(CCCNC(=O)C(c2ccc(C)cc2)c2ccc(C)cc2)CC1					975	17	170
Cc1ccc(C(O)(C(=O)NCCCN2CCC(C#N)(c3ccccc3C)CC2)c2ccc(C)cc2)cc1		1.3		< 1	1500	2	570
Cc1ccc(C2(c3ccc(C)cc3)CC(=S)N(CCCN3CCC(C#N)(c4ccccc4Cl)CC3)C2=O)cc1					> 5000	220	> 2000
Cc1ccc(C(O)(C(=O)NCCCN2CCC(C#N)(c3ccccc3)CC2)c2ccc(C)cc2)cc1					4800	5.7	1800
Cc1ccc(C2(c3ccc(C)cc3)CC(=O)N(CCCN3CCC(C#N)(c4ccccc4Cl)CC3)C2=O)cc1	1.7	0.66	11	19	220	0.48	98
Cc1ccc(C2(c3ccc(C)cc3)CC(=O)N(CC(O)CN3CCC(C#N)(c4ccccc4C)CC3)C2=O)cc1 (centres undefined)					4100	9.7	1500
